In patent publication US20250186461A1, “METHODS AND COMPOSITIONS FOR TREATING AND/OR PREVENTING HERNIAS” (Northwestern University, priority 2023, published 2025):
Entries after “also recorded” stand apart in the source; their conditions may differ.

How the values were obtained:
Arom^hum mice [1] = experiment: Hernia prevention in Arom^hum mice (treatment before hernia formation); type: in vivo, mouse; conditions: male Arom^hum mice; 12-week treatment started at 3-3.5 weeks of age (before hernia formation); vs placebo
Source text: Our study design is robust, utilizing Arom^hum mice with endpoints examined after treatment with placebo or anti-P4/PGR, and compared to those of WT littermates using 2 different tissue sites: UAM and LAM (normal or weakened/herniated). Inguinal hernia affects predominantly men vs. women (10:1 ratio). Inguinal hernias are unique to male mice and aged men. […] Here, we will focus on the effects of P4/PGR action on skeletal muscle integrity and hernia formation in males, and our work will be carried out in male mice or tissues primarily from men over 50 years of age. We will use mouse or human tissues or primary cells to closely recapitulate in vivo pathology.
The mouse scrotum is connected to the peritoneal cavity with a narrow funicular (or inguinal) canal, with walls composed of LAM tissue. Structurally normal LAM tissue is essential to maintain the tone of this canal and prevent herniation of the bowel.
Experiment 1a1: Does the addition of P4 to E2 treatment accelerate LAM fibrosis and hernia formation in WT mice? […] We hypothesize that this effect is primarily mediated by the E2 induction of PGR expression in LAM fibroblasts. […] If this were true, the addition of pharmacologic quantities of P4 (75 mg/pellet for 12-week release)^73 to E2 (0.3 mg/pellet for 12-week release)^23-25 in WT mice should accelerate this phenotype. […] See Statistical Methods above for sample size calculation. Hernia surface area will be measured using a digital caliper and calculated as previously described (length×width)^19. At the designated endpoints, LAM and UAM (control) from each mouse will be resected, with one-half of the tissue snap-frozen in liquid nitrogen, and the other half fixed in 4% phosphate-buffered paraformaldehyde for histological and IHC analyses (see below). All tissue and serum (for P4/E2 levels) samples will be collected between 10:00 AM and noon to avoid possible variability in daily hormone fluctuations. […] We will continue to complete the rest of the proposed study in this subaim. We will also assess whether and extent of muscle fibrosis and atrophy will be induced in P4+E2-induced large hernias and E2-induced small hernias. […] P4 antagonists show various levels of selectivity for PGR. […] The use of 3 distinct P4/PGR antagonists with different properties will establish the role of PGR in muscle fibrosis and hernia.
Hernias will be classified as small, medium, or large if the bulging area through muscle tissue is 125-175 mm^2, 175-225 mm^2, or >225 mm^2, respectively. […] We will assess whether muscle fibrosis, atrophy, and hernia are arrested or reversed. […] Hernia size will be measured. After completion of treatment, the mice will be dissected, and LAM, UAM (control), and serum will be collected. A total of 100 mg of tissue (LAM and UAM) will be obtained and frozen for measurement of tissue E2/P4.

WT mice = experiment: E2/P4-induced hernia formation in WT mice; type: in vivo, mouse; conditions: WT male mice
Source text: All placebo-treated Arom^hum mice developed hernias starting from 5 weeks of age. None of the WT littermates developed hernias. […] The mouse scrotum is connected to the peritoneal cavity with a narrow funicular (or inguinal) canal, with walls composed of LAM tissue. Structurally normal LAM tissue is essential to maintain the tone of this canal and prevent herniation of the bowel.
Experiment 1a1: Does the addition of P4 to E2 treatment accelerate LAM fibrosis and hernia formation in WT mice? It was shown that treatment of male WT mice with extremely high doses of systemic estrogens starting around or after the onset of puberty caused inguinal hernia in one third to half of these animals^23-25. We hypothesize that this effect is primarily mediated by the E2 induction of PGR expression in LAM fibroblasts. Male mice have readily detectable P4 levels in the circulation and LAM tissue to activate PGR in LAM fibroblasts (FIG. 6). If this were true, the addition of pharmacologic quantities of P4 (75 mg/pellet for 12-week release)^73 to E2 (0.3 mg/pellet for 12-week release)^23-25 in WT mice should accelerate this phenotype. Our ongoing preliminary study, whereby a 6-week treatment with P4+E2 induced large inguinal hernia in all WT mice (FIG. 7A), supports the following experiment. Long-term (8 weeks or longer) treatment with E2 only is anticipated to cause hernias in up to half of WT mice based on previous findings^23-25. We will determine whether P4+E2 treatment over 12 weeks will give rise to larger hernias in a higher number of mice compared with E2-only treatment. […] See Statistical Methods above for sample size calculation. Hernia surface area will be measured using a digital caliper and calculated as previously described (length×width)^19. At the designated endpoints, LAM and UAM (control) from each mouse will be resected, with one-half of the tissue snap-frozen in liquid nitrogen, and the other half fixed in 4% phosphate-buffered paraformaldehyde for histological and IHC analyses (see below). […]

[2] = tested on: PGR expression in LAM fibroblasts of Arom^hum mice; experiment: E2/ESR1-induced PGR expression (mRNA, immunoblotting) in LAM fibroblasts; type: cell-based, mouse; conditions: for E2-induced expression of Pgr (mRNA): 100 nM ICI 182,780 or 10 μM MPP, pretreated 2 h, E2 10 nM
Experimental: (A) Time course of E2 (10 nM) effect on PGR protein expression in LAM fibroblasts of Arom^hum mice. […] (E) PGR protein levels in LAM primary fibroblasts from WT and Arom^hum mice after treatment with ICI with or without E2 for 48 h. Cells were pretreated with ICI or MPP for 2 h before adding E2. Data are representative of 3 independent experiments; B-actin serves as a loading control for (A) and (E). Vch: vehicle. […] MPP: A selective ESR1 antagonist.
Breast cancer cell line T47D served as a positive control.

Arom^hum mice [3] = experiment: Reversal of existing (large) hernias in Arom^hum mice; type: in vivo, mouse; conditions: Arom^hum mice with large hernias; 3.75 mg/pellet, 12-week subcutaneous release; n=10-11
Source text: Arrows in panels B and D point to hernias.
The scrotal area in WT mice is under ˜125 mm^2. We classified hernias as small, medium, or large based on the bulging area through muscle tissue of 125-175 mm^2, 175-225 mm^2, or ≥225 mm^2, respectively. […] Since long-term anti-E2/ESR1 treatments cause significant side effects (e.g., sexual dysfunction or osteoporosis), we mechanistically explored the specific and major downstream effectors of E2/ESR1 signaling leading to muscle fibrosis. […] The key observations that support the role of P4/PGR signaling are summarized below.

Arom^hum mice [4] = conditions: earlier work of the applicant (refs 19, 22); cited from earlier work
Arom^hum mice [5] = conditions: previously shown (ref 19); cited from earlier work

C[C@]12CCC(=O)C[C@@H]1CC[C@@H]1[C@@H]2CC[C@]2(C)[C@@H](O)CC[C@@H]12 [DHT]
hernia formation / hernia size (Arom^hum mice [1]): None prevented hernia formation

C[C@]12CC[C@@H]3c4ccc(O)cc4CC[C@H]3[C@@H]1CC[C@@H]2O [E2, Estradiol]
hernia size induced (WT mice; treatment started at the age of 9 weeks): 125-175 mm2

Cc1cc(-c2ncc(CC(=O)Nc3ccc(-c4cnccn4)cn3)cc2C)ccn1 [LGK974]
hernia formation / hernia size (Arom^hum mice [1]): None prevented hernia formation

Cc1c(-c2ccc(O)cc2)nn(-c2ccc(O)cc2)c1-c1ccc(OCCN2CCCCC2)cc1 [MPP]
E2-induced expression of Pgr (mRNA) [2]: significantly decreased E2-induced expression of Pgr

CC(=O)[C@H]1CC[C@H]2[C@@H]3CCC4=CC(=O)CC[C@]4(C)[C@H]3CC[C@]12C [P4, Progesterone]
hernia formation (WT mice; treatment started at 9-10 weeks of age, up to 12 weeks): did not induce any hernia formation

C[C@]12CC[C@@H]3c4ccc(O)cc4C[C@@H](CCCCCCCCC[S+]([O-])CCCC(F)(F)C(F)(F)F)[C@H]3[C@@H]1CC[C@@H]2O (some centres unmarked) [fulvestrant]
E2-induced expression of Pgr (mRNA) [2]: significantly decreased E2-induced expression of Pgr | protein levels of 3 PGR isoforms (immunoblotting) ([2]; LAM fibroblasts of WT and Arom^hum mice, ICI with or without E2 for 48 h): blocked | reversal of large hernias, LAM fibrosis and muscle atrophy (Arom^hum mice [3]): reversed large hernias and restored normal anatomy and reversed LAM tissue fibrosis and muscle atrophy; also recorded: successfully reversed them to normal size, rescued LAM fibrosis, reversed muscle atrophy, and restored normal anatomy | reversal of existing hernias (Arom^hum mice [4]): reversed existing hernias and restored normal anatomy in Arom^hum mice

N#Cc1ccc(C(c2ccc(C#N)cc2)n2cncn2)cc1 [letrozole, Letrozole]
prevention of LAM fibrosis and hernia formation (Arom^hum mice [5]): entirely prevents this phenotype | reversal of existing hernias (Arom^hum mice [4]): reversed existing hernias and restored normal anatomy in Arom^hum mice
